# Test results reported in patent US10441588B2, “Methods and compositions for treating bacterial infection” (Curators of the University of Missouri, priority 2012, dated 2019).
# Entries after “also recorded” stand apart in the source; their conditions may differ.
# What was measured:
# [1] = test system: group A streptococcus (GAS); experiment: Group A streptococcus infection in mice; format: in vivo; conditions: GAS 105-6 CFU per mouse
# Experimental: FIGS. 1A & 1B show the identification of a chemical series of compounds inhibiting group A streptococcus virulence. FIG. 1A) Microarray analysis of gene expression changes in MGAS2221 treated with CCG-102487 compared to DMSO. FIG. 1B) Effect of CCG-2979 on mice survival after infection with GAS (105-6 CFU per mouse).
# A number of small molecules that can inhibit SK expression without impeding bacterial growth were evaluated. Furthermore, these compounds can inhibit gene expression of a broad spectrum of streptococcal virulence factors (FIG. 1A).
# S. aureus biofilm = S. aureus biofilm inhibition, optical density, test/control; format: cell-based, Staphylococcus aureus; conditions: Staphylococcus aureus, growth of biofilm test/control by optical density
# S. aurues strain RN6390 = experiment: S. aureus RN6390 bacterial growth; format: cell-based; conditions: at 20 μM
# Experimental: (§1) These compounds were then tested on staphylococcus biofilm formation. […] The two compounds (CCG-203592 and CCG-205363) were tested on S. aurues strain RN6390, which is reported to be more prone to biofilm formation than Newman strain.
# S. aureus Newman biofilm = S. aureus Newman biofilm formation in microtiter plates; format: cell-based
# Experimental: as §1
# S. aureus Newman strain = experiment: S. aureus lung infection model in mice; conditions: intranasal S. aureus Newman, 3-4×10^8 CFU per mouse
# [2] = test system: S. aureus RN6390 strain biofilm; experiment: microbe, parasite or virus in culture; format: cell-based; conditions: for IC50: Staphylococcus aureus, read-out: IC50, inhibition of RN6390 biofilm formation
# [3] = test system: S. aureus virulence factor genes; experiment: S. aureus virulence factor gene expression, real time RT-PCR; format: cell-based; conditions: RN6390, 50 μM; ML, LL and S growth phase
# [4] = test system: S. aureus RN6390 strain biofilm; experiment: Biofilm formation on medical grade silicone sheet; format: cell-based
# S. aureus = S. aureus growth inhibition, optical density, test/control; format: cell-based, Staphylococcus aureus; conditions: Staphylococcus aureus, growth of bacteria test/control by optical density
# S. epidermis = S. epidermis growth inhibition, optical density, test/control; format: cell-based, Staphylococcus epidermidis; conditions: Staphylococcus epidermidis, 100 μM; growth of bacteria test/control by optical density
# S. epidermis biofilm = S. epidermis biofilm inhibition, optical density, test/control; conditions: growth of biofilm test/control by optical density
# MRSA [5] = experiment: MRSA response to antibiotics in presence of compound; conditions: 50 μM CCG-211790
# Acinetobacter baumannii = experiment: Vancomycin potency against Acinetobacter baumannii
# E. coli STEC O157:H7 = format: in vivo, mice
# MRSA [6] = experiment: MRSA skin punch wound infection in DIO mice; format: in vivo, diet induced obesity (DIO) mice; conditions: 10^8 CFU MRSA; 60 μg/wound in ointment (6% silica in cod liver oil) vs ointment alone
# Source text: In this example, in vivo and in vitro efficacy for wound infection (against MRSA and P. aeruginosa) was investigated. Diabetic ulcer lesion is a major complication of people with diabetes and represents a form of chronic wounds. Bacteria can form biofilm in the lesions, which is recalcitrant to treatment. Therefore, diet induced obesity (DIO) mice were used as a model of obesity and insulin resistance diabetes to test the in vivo efficacy of CCG-211790 to fight wound infections.
# (§2) A skin punch wound was introduced to the DIO mice and infected with 10^8 CFU MRSA. Mice were then treated locally at the wound site with ointment containing CCG-211790 (60 μg/wound) in an ointment (6% silica in cod liver oil) or ointment alone. […] Furthermore, CCG-211790 protected mouse fibroblast cells (CCL-1) from MRSA cytoxicity in vitro (FIG. 13B).
# E. coli flagellin (fliC) = experiment: microbe, parasite or virus in culture; format: cell-based
# [7] = test system: mouse fibroblast cells (CCL-1); experiment: MRSA cytotoxicity on mouse fibroblast cells in vitro; format: cell-based
# Experimental: as §2
# P. aeruginosa [8] = experiment: Ciprofloxacin potency against P. aeruginosa
# [9] = test system: E. coli adhesion to human epithelial cells (Caco2); experiment: E. coli adhesion to Caco2 cells; format: cell-based; conditions: Caco-2
# Experimental: FIGS. 15A and 15B show CCG-211790 (NV001) inhibited E. coli virulence. FIG. 15A is a western blot of fliC expression at different concentrations of CCG-211790 (NV001).
# CCG-211790 (NV001) and a number of structural analogs inhibited the expression of the flagellin gene (fliC) (FIG. 15A) and also the bacterial adhesion to human epithelial cells (Caco2) (FIG. 15B). As summarized in Table 5, the effect of compounds on E. coli flagellin expression was also tested by incubating compounds (5 and 25 μM) with E. coli for 6 hours, flagellin expression in supernatant (IVG-00601, 607) or cell pellet (IVG-00608-006014) was examined by western and quantified.
# MRSA [10] = experiment: MRSA growth
# [11] = test system: S. aureus clinical strain NRS234; experiment: S. aureus pneumonia model; format: in vivo, Balb/C mice
# Experimental: S. aureus is one of the major causative agents of pneumonia. CCG-211790 was tested in a pneumonia model. Balb/C mice were intra-nasally infected with 10^7 CFU S. aureus clinical strain NRS234 and treated with either 0.15 μmol CCG-211790 or DMSO two hours after infection. The mice were then treated with CCG-211790 or DMSO (control) twice a day after the day of infection for three days. […] Mice were also infected with higher dose of bacteria at 10^9 CFU treated intraperitoneally (ip) with either 0.15 μmol CCG-211790, vancomycin, combination of CCG-21790 and vancomycin, or DMSO two hours after infection. The mice were then treated twice a day after the day of infection for three days.
# P. aeruginosa [12] = experiment: P. aeruginosa wound infection in DIO mice; format: in vivo; conditions: for survival: female DIO mice, 10^8 CFU
# [13] = test system: A. baumannii (AYE) biofilm; experiment: A. baumannii open wound infection mouse model; format: in vivo, mice; conditions: topical, 6 mg/ml in PEG, 100 μl daily
# Experimental: A topical formulation (6 mg/ml in Polyehylene glycol; PEG) was tested for its in vivo efficacy on the open wound infection mouse model.
smiles,measurement,setting,value
C=CCn1c(SCCCC)nc2c(c1=O)C1(CCCCC1)Cc1ccccc1-2 [CCG-2979],protection of mice against group A streptococcal infection (survival),[1],capable of protecting mice
C=CCn1c(SCC)nc2c(c1=O)C(C)(C)Cc1cc(OC)ccc1-2 [CCG-203592],activity at 10 µM,S. aureus biofilm,40.2%
same,activity at 100 µM,S. aureus biofilm,23%
same,bacteria growth,S. aurues strain RN6390,without inhibiting bacteria growth
same,S. aureus Newman biofilm formation,S. aureus Newman biofilm,consistent inhibition
same,protection of mice in S. aureus lung infection model,S. aureus Newman strain,in vivo efficacy in protecting mice
same,"IC50, inhibition of S. aureus biofilm formation",[2],low μM range
same,IC50,[2],2.42 ± 0.14 µM
same,S. aureus virulence factor gene expression,[3],down regulated; also recorded: inhibited gene expression
same,biofilm formation on the surface of silicone sheet,[4],decreased biofilm formation
same,activity at 100 µM,S. aureus,110%
C=CCSc1nc2c(c(=O)n1CC=C)C(C)(C)Cc1cc(OC)ccc1-2 [CCG-205363],activity at 10 µM,S. aureus biofilm,63.1%
same,activity at 100 µM,S. aureus biofilm,44%
same,bacteria growth,S. aurues strain RN6390,without inhibiting bacteria growth
same,S. aureus Newman biofilm formation,S. aureus Newman biofilm,consistent inhibition
same,"IC50, inhibition of S. aureus biofilm formation",[2],low μM range
same,IC50,[2],6.96 ± 0.76 µM
same,S. aureus virulence factor gene expression,[3],inhibited gene expression
same,activity at 100 µM,S. aureus,95%
C=CCn1c(SCC)nc2c(c1=O)C(C)(C)Cc1cc(OCCN3CCOCC3)ccc1-2 [CCG-205427],activity at 10 µM,S. aureus biofilm,73.4%
same,activity at 100 µM,S. epidermis,98%
same,activity at 100 µM,"S. epidermis biofilm; Staphylococcus epidermidis, read-out: S. epidermis Biofilm inhibition 100 μM vs. (−) Control, 100 μM",76.6%
same,activity at 100 µM,S. aureus,92.8%
"C=CCn1c(SCCOC)nc2c(c1=O)C1(CCNCC1)Cc1ccccc1-2 [CCG-205447, 3-Allyl-2-((2-methoxyethyl)thio)-3H-spiro[benzo[h]quinazoline-5,4′-piperidin]-4(6H)-one]",activity at 10 µM,S. aureus biofilm,110%
same,activity at 100 µM,S. epidermis,104%
same,S. epidermis Biofilm inhibition 10 μM vs. (−) Control,S. epidermis biofilm; 10 μM,0.936
same,activity at 100 µM,S. aureus,90%
"COc1ccc2c(c1)-c1nc(SCC(F)(F)F)n(C)c(=O)c1C(C)(C)C2 [CCG-211790, 9-methoxy-3,5,5-trimethyl-2-((2,2,2-trifluoroethyl)thio)-5,6-dihydrobenzo[h]quinazolin-4(3H)-one]","antibiotic potency against MRSA (amoxicillin, vancomycin, clindamycin, tetracycline, erythromycin)",MRSA [5],enhanced the antibiotic potency
same,potency of vancomycin against Acinetobacter baumannii,Acinetobacter baumannii,enhanced the potency
same,activity at 5 µM,"S. aureus biofilm; 5 μM, read-out: S. aureus Biofilm Inhibition 5 μM vs. (−) Control",38.1%
same,activity at 50 µM,"S. aureus biofilm; 50 μM, read-out: S. aureus Biofilm Inhibition 50 μM vs. (−) Control",32.6%
same,survival,"E. coli STEC O157:H7; […], 10 mg/kg ip twice a day",55.6%
same,infection symptoms and survival,"E. coli STEC O157:H7; mouse, in vivo",improved infection symptoms and survival
same,skin lesion size,MRSA [6],reduce the skin lesion size
same,activity at 5 µM,"E. coli flagellin (fliC); Escherichia coli, 6 h, read-out: E. coli flagellin production, Relative Level vs. Control, 5 μM",56.9%
same,activity at 25 µM,"E. coli flagellin (fliC); Escherichia coli, 6 h, read-out: E. coli flagellin production, Relative Level vs. Control, 25 μM",15.4%
same,expression of the flagellin gene (fliC),"E. coli flagellin (fliC); western blot, different concentrations",inhibited
same,protection of CCL-1 cells from MRSA cytoxicity,[7],protected
same,ciprofloxacin potency against P. aeruginosa,P. aeruginosa [8],enhanced
same,bacterial adhesion to human epithelial cells (Caco2),[9],inhibited
same,effect on bacteria growth,MRSA [10],little to no effect
same,bacterial counts in both lungs and spleens,"[11]; 10^7 CFU intranasal, 0.15 μmol, twice a day for three days, vs DMSO",Significant reduction
same,"protection of hosts (survival), monotherapy","[11]; 10^9 CFU, 0.15 μmol ip",Significant protection
same,"survival rate, combination with vancomycin","[11]; 10^9 CFU, combination of vancomycin and CCG-211790",improved the survival rate
same,survival,P. aeruginosa [12]; 12 mg/kg CCG-211790 oral with 10 mg/kg vancomycin ip,100%
same,skin lesion size,"P. aeruginosa [12]; male and female DIO mice, with vancomycin vs only vancomycin",reduced
same,A. baumannii infected wound lesion size,[13],reduced
"CN[C@H](CC(C)C)C(=O)N[C@H]1C(=O)N[C@@H](CC(N)=O)C(=O)N[C@H]2C(=O)N[C@H]3C(=O)N[C@H](C(=O)N[C@H](C(=O)O)c4cc(O)cc(O)c4-c4cc3ccc4O)[C@H](O)c3ccc(c(Cl)c3)Oc3cc2cc(c3O[C@@H]2O[C@H](CO)[C@@H](O)[C@H](O)[C@H]2O[C@H]2C[C@](C)(N)[C@H](O)[C@H](C)O2)Oc2ccc(cc2Cl)[C@H]1O [vancomycin, reference compound]",survival,P. aeruginosa [12]; vancomycin treatment alone,40%
